Laboratory results: ChEMBL document CHEMBL1138945, “Development of N-4,6-pyrimidine-N-alkyl-N'-phenyl ureas as orally active inhibitors of lymphocyte specific tyrosine kinase” (Bioorg Med Chem Lett, 2006)
Values after ≈ are worked out from the molar mass of the structure shown.

Tests used:
[1] = target: Tyrosine-protein kinase Lck (Homo sapiens, UniProt P06239); experiment: Inhibition of Lck
[2] = Aqueous solubility of the compound; format: physicochemical; settings: buffer
[3] = Intrinsic clearance in rat hepatocytes after 1 hr at 1 uM; format: ADME, cell-based, Liver, Hepatocyte
[4] = test system: Jurkat; experiment: Inhibition of IL2 production in Jurkat E6-1 T cell line; format: functional, cell-based; settings: Homo sapiens
[5] = Cmax in orally dosed rat; format: ADME, organism-based; parameters: route oral; settings: in vivo, po
[6] = Oral bioavailability in rat; format: ADME, organism-based; settings: in vivo
[7] = test system: Rattus norvegicus; experiment: Inhibition of adjuvant-induced hind paw swelling in Lewis rat at 25 mg/kg, po after 7 days relative to control; format: functional; settings: 168 h

Tyrosine-protein kinase Lck, sequence (P06239 whole entry): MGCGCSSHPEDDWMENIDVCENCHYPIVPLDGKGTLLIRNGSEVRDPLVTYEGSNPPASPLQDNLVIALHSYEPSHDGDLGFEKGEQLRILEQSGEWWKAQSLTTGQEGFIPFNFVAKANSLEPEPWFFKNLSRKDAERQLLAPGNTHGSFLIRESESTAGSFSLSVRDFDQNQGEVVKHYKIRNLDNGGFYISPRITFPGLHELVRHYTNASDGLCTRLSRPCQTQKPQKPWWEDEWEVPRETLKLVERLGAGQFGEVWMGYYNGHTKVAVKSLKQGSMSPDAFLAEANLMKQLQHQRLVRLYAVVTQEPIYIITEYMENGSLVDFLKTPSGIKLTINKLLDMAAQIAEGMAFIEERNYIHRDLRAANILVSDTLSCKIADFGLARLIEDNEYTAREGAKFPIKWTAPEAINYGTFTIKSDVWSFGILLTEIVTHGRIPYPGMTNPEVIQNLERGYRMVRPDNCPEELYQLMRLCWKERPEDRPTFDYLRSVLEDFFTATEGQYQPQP

Compound	IC50 [1]	also measured
CN(C)CCCN(C(=O)Nc1c(Cl)cccc1Cl)c1cc(Nc2ccc(N3CCOCC3)cc2)ncn1	155 nM	–
CCN(CC)CCOc1ccc(Nc2cc(N(C)C(=O)Nc3cc(O)ccc3C)ncn2)cc1	3 nM	solubility [2]: 41 µg/mL (≈ 88.3 µM); CLint scaled at 1 µM [3]: 108 mL/min/kg; IC50 [4]: 64 nM; Cmax [5]: 3 ng/mL; bioavailability [6]: 1%
O=C(Nc1c(Cl)cccc1Cl)N(c1ccncc1)c1cc(Nc2ccc(N3CCOCC3)cc2)ncn1	> 10000 nM	–
CN(C(=O)Nc1c(Cl)cccc1Cl)c1cc(NC2CCOCC2)ncn1	> 10000 nM	–
CCN(CC)CCOc1ccc(Nc2cc(N(C)C(=O)Nc3cc(OC)ccc3C)ncn2)cc1	2580 nM	–
CCN(CC)c1ccc(Nc2cc(N(CCCN(C)C)C(=O)Nc3ccccc3Cl)ncn2)cc1	4490 nM	–
CCN(CC)CCOc1ccc(Nc2cc(N(C)C(=O)Nc3cc(NC(=O)c4cc5ccccc5n4C)ccc3C)ncn2)cc1	149 nM	–
CN(C)CCCNc1cc(N(C)C(=O)Nc2c(Cl)cccc2Cl)ncn1	5990 nM	–
CCN(CC)c1ccc(Nc2cc(N(C)C(=O)Nc3ccccc3Cl)ncn2)cc1	3130 nM	–
CCN(CC)CCOc1ccc(Nc2cc(N(C)C(=O)Nc3cc(C(=O)Nc4cc(C(C)(C)C)on4)ccc3C)ncn2)cc1	4 nM	solubility [2]: 1 µg/mL (≈ 1.63 µM); IC50 [4]: < 10 nM
CCN(CC)CCOc1ccc(Nc2cc(N(C)C(=O)Nc3cc(C(=O)Nc4cccc(C(F)(F)F)c4)ccc3C)ncn2)cc1	32 nM	–
CCN(CC)CCOc1ccc(Nc2cc(N(C)C(=O)Nc3c(Cl)cccc3Cl)ncn2)cc1	87 nM	inhibition in vivo at 25 mg/kg [7]: 63%; solubility [2]: 38 µg/mL (≈ 75.5 µM); CLint scaled at 1 µM [3]: 40 mL/min/kg; IC50 [4]: 862 nM; Cmax [5]: 394 ng/mL; bioavailability [6]: 66%
CNc1cc(N(CCCN(C)C)C(=O)Nc2c(Cl)cccc2Cl)ncn1	2350 nM	–
CN(C(=O)Nc1ccccc1Cl)c1cc(Nc2ccc(N3CCOCC3)cc2)ncn1	4290 nM	–
CCN(CC)CCOc1ccc(Nc2cc(N(C)C(=O)Nc3ccccc3OC)ncn2)cc1	> 10000 nM	–
CCN(CC)CCNc1cc(N(C)C(=O)Nc2c(Cl)cccc2Cl)ncn1	> 10000 nM	–
CCN(CC)CCOc1ccc(Nc2cc(N(C)C(=O)Nc3c(Cl)cccc3C(F)(F)F)ncn2)cc1	96 nM	–
CN1CCN(c2ccc(Nc3cc(N(C)C(=O)Nc4c(Cl)cccc4Cl)ncn3)cc2)CC1	6 nM	–
CN1CCN(N(C(=O)Nc2c(Cl)cccc2Cl)c2cc(Nc3ccc(N4CCOCC4)cc3)ncn2)CC1	230 nM	–
CCN(CC)CCOc1ccc(Nc2cc(N(C)C(=O)Nc3cc(NC(=O)c4cccc(C(F)(F)F)c4)ccc3C)ncn2)cc1	3 nM	solubility [2]: 3 µg/mL (≈ 4.72 µM); IC50 [4]: < 10 nM
CCN(CC)c1ccc(Nc2cc(N(Cc3ccccc3)C(=O)Nc3ccccc3Cl)ncn2)cc1	> 10000 nM	–
CCN(CC)CCOc1ccc(Nc2cc(N(C)C(=O)Nc3c(F)cccc3F)ncn2)cc1	418 nM	–
CN1CCN(c2ccc(Nc3cc(N(C)C(=O)Nc4ccccc4Cl)ncn3)cc2)CC1	708 nM	–

The next lines start with results.

IC50 [1]	Compound	also measured
301 nM	CN(C(=O)Nc1c(Cl)cccc1Cl)c1cc(Nc2ccc(N3CCOCC3)cc2)ncn1	solubility [2]: 3 µg/mL (≈ 6.34 µM); CLint scaled at 1 µM [3]: 48 mL/min/kg; IC50 [4]: 2900 nM; Cmax [5]: 9 ng/mL; bioavailability [6]: 0%
> 10000 nM	CCN(CC)c1ccc(Nc2cc(N(Cc3ccc(N(C)C)cc3)C(=O)Nc3ccccc3Cl)ncn2)cc1	–
52 nM	CCN(CC)CCOc1ccc(Nc2cc(N(C)C(=O)Nc3cc(NC(=O)c4cc5ccccc5s4)ccc3C)ncn2)cc1	–
> 10000 nM	CCN(CC)CCOc1ccc(N(C(=O)Nc2c(Cl)cccc2Cl)c2cc(NC)ncn2)cc1	–
190 nM	Cc1cccc(Cl)c1NC(=O)N(C)c1cc(Nc2ccc(N3CCOCC3)cc2)ncn1	–
971 nM	CCN(CC)c1ccc(Nc2cc(N(CCCN(C)C)C(=O)Nc3c(C)cccc3Cl)ncn2)cc1	–
28 nM	CCN(CC)CCOc1ccc(Nc2cc(N(C)C(=O)Nc3c(C)cccc3Cl)ncn2)cc1	solubility [2]: 34 µg/mL (≈ 70.4 µM); CLint scaled at 1 µM [3]: 25 mL/min/kg; IC50 [4]: 3100 nM
9 nM	Cc1cccc(Cl)c1NC(=O)N(C)c1cc(Nc2ccc(N3CCN(C)CC3)cc2)ncn1	solubility [2]: 2 µg/mL (≈ 4.29 µM); IC50 [4]: 749 nM
1820 nM	CN(C(=O)Nc1ccccc1Cl)c1cc(Nc2ccc(F)cc2)ncn1	–
4 nM	Cc1ccc(O)cc1NC(=O)N(C)c1cc(Nc2ccc(N3CCOCC3)cc2)ncn1	–
> 10000 nM	CN(C(=O)Nc1c(Cl)cccc1Cl)c1cc(NCCN2CCOCC2)ncn1	–
229 nM	CCN(CC)CCOc1ccc(Nc2cc(N(CCCN(C)C)C(=O)Nc3c(Cl)cccc3Cl)ncn2)cc1	–
1450 nM	Cc1cccc(Cl)c1NC(=O)N(Cc1ccccc1)c1cc(Nc2ccc(F)cc2)ncn1	–
3860 nM	CN(C(=O)Nc1c(Cl)cccc1Cl)c1cc(Nc2ccc(F)cc2)ncn1	–
